Laboratory results: patent US10227331B2 (priority 2015, dated 2019)
Like-named read-outs stand apart in the source and are kept apart here.

Assays:
NDM-1 = NDM-1 (Klebsiella pneumoniae, UniProt C7C422); test: biochemical; type: biochemical; conditions: CCF2-FA substrate, 2 hours at 25° C; read-out: NDM-1 IC50
Procedure, shortened: (§1)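 Semi-log dose-response curves, fitted with a 4-parameter model, gave IC50s. The underlying signal was CCF2-FA fluorescence following 2 hours at 25° C with enzyme, substrate and inhibitor combined.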

IMP-1 = IMP-1 (Serratia marcescens, UniProt P52699); test: biochemical; type: biochemical
Procedure, shortened: as §1

[1] = tested on: P. aeruginosa expressing IMP-1, efflux− (MB9799); test: Efflux: concentration of MBL inhibitor which restores susceptibility to imipenem; type: cell-based, Pseudomonas aeruginosa; conditions: imipenem at 2 μg/mL, in the presence of a class A, C, D serine β-lactamase inhibitor closely related to relebactam
Excerpt: (§2) The strain background is Pseudomonas aeruginosa PAO1.

[2] = tested on: P. aeruginosa expressing IMP-1, efflux+ (MB9798); type: cell-based, Pseudomonas aeruginosa; conditions: for P. aeruginosa expressing IMP-1, efflux+ (MB9798) MITC95: imipenem at 2 μg/mL, in the presence of a class A, C, D serine β-lactamase inhibitor closely related to relebactam; for Efflux ratio: ratio MITC95 PA_9798/MITC95 PA_9799
Excerpt: as §2

[3] = tested on: Serratia marcescens expressing IMP-1 (CL5741); type: cell-based; conditions: with imipenem 1 μg/ml, 95% inhibition of bacterial growth; for Serratia marcescens MITC95: IMP-1 (CL5741)
Procedure, shortened: (§3)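 Restoration of imipenem susceptibility (1 μg/ml imipenem) was judged by absorbance after 22–24 h at 35° C. Test compound was added to bacteria suspended 1:100 in 1.1× CAMHB from overnight blood-agar cultures.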

[4] = tested on: Escherichia coli expressing NDM-1 (CLB30005, CLB30016); type: cell-based; conditions: with imipenem 1 μg/ml, 95% inhibition of bacterial growth; for Escherichia coli MITC95: NDM-1 (CLB30016)
Procedure, shortened: as §3

[5] = tested on: Klebsiella pneumoniae expressing VIM-1 (IHMA599644); type: cell-based; conditions: with imipenem 1 μg/ml, 95% inhibition of bacterial growth; for Klebsiella pneumoniae MITC95: VIM-1 (IHMA599644)
Procedure, shortened: as §3

VIM-1 = VIM-1 (Pseudomonas aeruginosa (strain ATCC 15692 / DSM 22644 / CIP 104116 / JCM 14847 / LMG 12228 / 1C / PRS 101 / PAO1), UniProt A0A0F7KYQ8); test: biochemical; conditions: CCF2-FA substrate, 2 hours at 25° C
Procedure, shortened: as §1

[6] = CCF2-FA substrate, 2 hours at 25° C, read-out: IMP-1 IC50

IMP-1, sequence (P52699 whole entry, looked up, species assumed): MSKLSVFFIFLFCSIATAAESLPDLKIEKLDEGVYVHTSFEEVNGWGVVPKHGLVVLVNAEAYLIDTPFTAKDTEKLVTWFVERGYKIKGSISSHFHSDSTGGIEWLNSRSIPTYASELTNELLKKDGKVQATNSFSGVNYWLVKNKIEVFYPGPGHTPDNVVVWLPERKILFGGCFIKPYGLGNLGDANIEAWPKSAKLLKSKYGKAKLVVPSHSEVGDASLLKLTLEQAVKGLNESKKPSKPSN
NDM-1, sequence (C7C422 whole entry, looked up, species assumed): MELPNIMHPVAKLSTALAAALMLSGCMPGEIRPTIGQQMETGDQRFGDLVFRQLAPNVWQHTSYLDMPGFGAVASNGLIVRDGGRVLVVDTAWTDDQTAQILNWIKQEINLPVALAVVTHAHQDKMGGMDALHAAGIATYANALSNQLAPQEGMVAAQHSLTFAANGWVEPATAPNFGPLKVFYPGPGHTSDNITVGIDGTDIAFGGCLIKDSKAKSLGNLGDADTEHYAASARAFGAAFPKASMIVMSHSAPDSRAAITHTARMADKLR

Compound	IC50 (NDM-1)	IC50 (IMP-1; [6])	P. aeruginosa expressing IMP-1, efflux− (MB9799) MITC95 [1]	P. aeruginosa expressing IMP-1, efflux+ (MB9798) MITC95 [2]	Efflux ratio [2]	Serratia marcescens expressing IMP-1 (CL5741) MITC95 [3]	Escherichia coli expressing NDM-1 (CLB30016) MITC95 [4]	Klebsiella pneumoniae expressing VIM-1 (IHMA599644) MITC95 [5]	IC50 (VIM-1)	Serratia marcescens MITC95 [3]	Escherichia coli MITC95 [4]	Klebsiella pneumoniae MITC95 [5]	IC50 (IMP-1)
NS(=O)(=O)c1c(S(=O)(=O)C2CNC2)ccc(-c2csc(N3CCCC3)n2)c1-c1nnn[nH]1.O=C(O)C(F)(F)F [Example 120, 3-((4-(2-(pyrrolidin-1-yl)thiazol-4-yl)-2-sulfamoyl-3-(1H-tetrazol-5-yl)phenyl)sulfonyl)azetidin-1-ium 2,2,2-trifluoroacetate]	0.755 nM	0.553 nM	1.563 µM	25 µM	15.99	3.125 µM	3.125 µM	6.25 µM	1.42 nM				
Cc1cc(-c2ccc(S(=O)(=O)CCN)c(S(N)(=O)=O)c2-c2nnn[nH]2)cnc1N.O=C(O)C(F)(F)F [Example 172, 2-((4-(6-amino-5-methylpyridin-3-yl)-2-sulfamoyl-3-(1H-tetrazol-5-yl)phenyl)sulfonyl)ethanaminium 2,2,2-trifluoroacetate]	2.98 nM	4.9 nM	1.781 µM	6.25 µM	3.51	1.281 µM	0.25 µM	3.125 µM	0.193 nM				
NCCS(=O)(=O)c1ccc(-c2ccc3[nH]nc(C(F)(F)F)c3c2)c(-c2nnn[nH]2)c1S(N)(=O)=O.O=C(O)C(F)(F)F [Example 163, 2-((2-sulfamoyl-3-(1H-tetrazol-5-yl)-4-(3-(trifluoromethyl)-1H-indazol-5-yl)phenyl)sulfonyl)ethanaminium 2,2,2-trifluoroacetate]	0.98 nM	1.22 nM	0.7813 µM	100 µM	127.99	3.125 µM	1.563 µM	3.125 µM	0.12 nM				
CN(C)CCS(=O)(=O)c1ccc(-c2cccc3sc(N)nc23)c(-c2nn[nH]n2)c1S(N)(=O)=O [Example 326, 3-(2-aminobenzo[d]thiazol-4-yl)-6-((2-(dimethylamino)ethyl)sulfonyl)-2-(2H-tetrazol-5-yl)benzenesulfonamide]	0.0761 nM	0.248 nM	1.563 µM	1.563 µM	1.00				0.167 nM	3.125 µM	3.125 µM	6.25 µM	
Cn1c(N)nc2c(-c3ccc(S(=O)(=O)CCN)c(S(N)(=O)=O)c3-c3nn[nH]n3)cccc21 [Example 79, 3-(2-amino-1-methyl-1H-benzo[d]imidazol-4-yl)-6-(2-aminoethylsulfonyl)-2-(2H-tetrazol-5-yl)benzenesulfonamide]	0.354 nM		0.6406 µM	0.8906 µM	1.39	0.8906 µM	0.25 µM	1.281 µM	0.327 nM				0.241 nM
Nc1nc2c(-c3ccc(S(=O)(=O)[C@@H]4CCNC4)c(S(N)(=O)=O)c3-c3nn[nH]n3)cccc2s1 [Example 183, 3-(2-aminobenzo[d]thiazol-4-yl)-6((R)-pyrrolidin-3-ylsulfonyl)-2-(2H-tetrazol-5-yl)benzenesulfonamide]	0.122 nM	0.157 nM	0.7813 µM	0.7813 µM	1.00	1.563 µM	0.7813 µM	1.563 µM	0.294 nM				
Cn1nc(N)c2c(-c3ccc(S(=O)(=O)CCN)c(S(N)(=O)=O)c3-c3nnn[nH]3)cccc21 [Example 266, 3-(3-amino-1-methyl-1H-indazol-4-yl)-6-((2-aminoethyl)sulfonyl)-2-(1H-tetrazol-5-yl) benzenesulfonamide]	0.198 nM	0.643 nM	3.125 µM	6.25 µM	2.00				0.232 nM	3.125 µM	6.25 µM	6.25 µM	
CC(=O)N1CCC(S(=O)(=O)c2ccc(-c3cccc4nc(N)[nH]c34)c(-c3nn[nH]n3)c2S(N)(=O)=O)CC1 [Example 44, 6-(1-acetylpiperidin-4-ylsulfonyl)-3-(2-amino-3H-benzo[d]imidazol-4-yl)-2-(2H-tetrazol-5-yl)benzenesulfonamide]	0.447 nM	1.98 nM	3.125 µM	100 µM	32.00	6.25 µM	6.25 µM	25 µM	0.299 nM				
NCCCNC(=O)c1cccc(-c2ccc(S(=O)(=O)CCN)c(S(N)(=O)=O)c2-c2nn[nH]n2)c1N [Example 375, 2-Amino-4′-((2-aminoethyl)sulfonyl)-N-(3-aminopropyl)-3′-sulfamoyl-2′-(2H-tetrazol-5-yl)-[1,1′-biphenyl]-3-carboxamide]	2.11 nM	1.71 nM	0.7813 µM	1.563 µM	2.00				0.53 nM	1.563 µM	1.563 µM	1.563 µM	
NC[C@@H](N)CS(=O)(=O)c1ccc(-c2ccc(N)nc2)c(-c2nn[nH]n2)c1S(N)(=O)=O [Example 371, (R)-3-(6-aminopyridin-3-yl)-6-((2,3-diaminopropyl)sulfonyl)-2-(2H-tetrazol-5-yl) benzenesulfonamide]	1.16 nM	1.38 nM	1.563 µM	3.125 µM	2.00				1.08 nM	1.563 µM	1.563 µM	3.125 µM	
NCCNC(=O)c1ccccc1-c1ccc(S(=O)(=O)CCN)c(S(N)(=O)=O)c1-c1nn[nH]n1 [Example 342, N-(2-Aminoethyl)-4′-((2-aminoethyl)sulfonyl)-3′-sulfamoyl-2′-(2H-tetrazol-5-yl)-[1,1′-biphenyl]-2-carboxamide]	15.3 nM	34.2 nM	3.125 µM	12.5 µM	4.00				2.84 nM	3.125 µM	1.563 µM	1.563 µM	
